Measured values as given in patent US8247211B2, “Glycopeptide antibiotics” (American Cyanamid Company, priority 2001, dated 2012).
≈ marks a conversion by molar mass, not a printed value.

Tests used:
Assay in all cases: In vitro antibacterial evaluation: minimum inhibitory concentration (MIC), broth dilution method
Assay type in all cases: cell-based
Enterococcus sp. = settings: for MIC Enterococcus faecalis (ATCC 29212): strain ATCC 29212; for MIC Enterococcus faecalis (GC 2242): strain GC 2242; for MIC Enterococcus faecium (GC 2243): strain GC 2243; for MIC Enterococcus faecalis (GC 2691): strain GC 2691; for MIC Enterococcus faecalis (GC 3059): strain GC 3059; for MIC Enterococcus faecalis (GC 4552): strain GC 4552; for MIC Enterococcus faecalis (GC 4553): strain GC 4553; for MIC Enterococcus faecalis (GC 4554): strain GC 4554; for MIC Enterococcus faecium (GC 4556): strain GC 4556; for MIC Enterococcus faecium (GC 4557): strain GC 4557; for MIC Enterococcus avium (GC 4558): strain GC 4558; for MIC Enterococcus faecalis (GC 6189): strain GC 6189
Procedure, shortened: (§1)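 Inoculum: 5×10^5 CFU/mL. Range: 64-0.06 μg/mL. Medium: Muller-Hinton II […]; NCCLS M7-A2 broth dilution. Endpoint: lowest concentration inhibiting growth. Strains include methicillin-, penicillin- and/or vancomycin-resistant clinical isolates.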

Staphylococcus sp. = settings: broth dilution, 18 hours at 35° C.
Procedure, shortened: as §1

Streptococcus sp. = settings: for MIC Streptococcus pyogenes (GC 4563): strain GC 4563; for MIC Streptococcus agalactiae (GC 4564): strain GC 4564
Procedure, shortened: as §1

Escherichia coli = settings: for MIC Escherichia coli (GC 4559): strain GC 4559; for MIC Escherichi coli (GC 4560): strain GC 4560
Procedure, shortened: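 Susceptibility determined by NCCLS-recommended broth dilution (M7-A2), Muller-Hinton II […]. Concentration span 64-0.06 μg/mL, inoculum 5×10^5 CFU/mL. Isolates include strains resistant to methicillin, penicillin and/or vancomycin.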

CC(c1ccccc1)C1NC(=O)CNC(=O)C(CO)NC(=O)C(C(O)C2CNC(=N)N2C2OC(CO)C(O)C(O)C2O)NC(=O)C(C(O)C2CNC(=N)N2)NC(=O)C(Cc2ccc(OC3OC(CO)C(OC4OC5COC(c6ccc(C(C)(C)C)cc6)OC5C(O)C4O)C(O)C3O)cc2)NC1=O (stereo not drawn) [Example 147, Cyclo[glycyl-β-methylphenylalanyl-O-[4-O-[4,6-O-(4-tert-butylbenzylidene)hexonyranosyl]-hexopyranosyl]tyrosyl-3-(2-iminoimidazolidin-4-yl)seryl-3-(3-hexopyranosyl-2-iminoimidazolidin-4-yl)serylseryl]]
MIC Enterococcus faecalis (ATCC 29212) (Enterococcus sp.): 0.5 to 2 µg/mL | MIC Enterococcus faecalis (GC 2242) (Enterococcus sp.): 0.5 to 1 µg/mL | MIC Enterococcus faecium (GC 2243) (Enterococcus sp.): 1 to 2 µg/mL | MIC Enterococcus faecalis (GC 2691) (Enterococcus sp.): 0.5 µg/mL (≈ 0.347 µM) | MIC Enterococcus faecalis (GC 3059) (Enterococcus sp.): 0.5 µg/mL (≈ 0.347 µM) | MIC Enterococcus faecalis (GC 4552) (Enterococcus sp.): 0.5 to 1 µg/mL | MIC Enterococcus faecalis (GC 4553) (Enterococcus sp.): 0.5 to 1 µg/mL | MIC Enterococcus faecalis (GC 4554) (Enterococcus sp.): 0.5 to 1 µg/mL | MIC Enterococcus faecium (GC 4556) (Enterococcus sp.): 2 µg/mL (≈ 1.39 µM) | MIC Enterococcus faecium (GC 4557) (Enterococcus sp.): 1 to 2 µg/mL | MIC Enterococcus avium (GC 4558) (Enterococcus sp.): 0.5 to 2 µg/mL | MIC Enterococcus faecalis (GC 6189) (Enterococcus sp.): 0.5 µg/mL (≈ 0.347 µM) | MIC Coagulase Negative Staphylococcus (GC 4547) (Staphylococcus sp.; 5×10^5 CFU/mL): 1 to 2 µg/mL | MIC Coagulase Negative Staphylococcus (GC 4548) (Staphylococcus sp.; 5×10^5 CFU/mL): <0.5 to 1 µg/mL | MIC Coagulase Negative Staphylococcus (GC 4549) (Staphylococcus sp.; 5×10^5 CFU/mL): <0.5 to 1 µg/mL | MIC Coagulase Negative Staphylococcus (GC 4551) (Staphylococcus sp.; 5×10^5 CFU/mL): 1 µg/mL (≈ 0.695 µM) | MIC Coagulase Negative Staphylococcus (GC 6257) (Staphylococcus sp.; 5×10^5 CFU/mL): 2 µg/mL (≈ 1.39 µM) | MIC Coagulase Negative Staphylococcus (ID-3941) (Staphylococcus sp.; 5×10^5 CFU/mL): 1 µg/mL (≈ 0.695 µM) | MIC Staphylococcus aureus (GC 3051) (Staphylococcus sp.; 5×10^5 CFU/mL): 0.5 µg/mL (≈ 0.347 µM) | MIC Staphylococcus aureus (GC 3053) (Staphylococcus sp.; 5×10^5 CFU/mL): 0.5 µg/mL (≈ 0.347 µM) | MIC Staphylococcus aureus (GC 4542) (Staphylococcus sp.; 5×10^5 CFU/mL): 0.5 to 1 µg/mL | MIC Staphylococcus aureus (GC 4544) (Staphylococcus sp.; 5×10^5 CFU/mL): 0.5 to 1 µg/mL | MIC Staphylococcus aureus (GC 4545) (Staphylococcus sp.; 5×10^5 CFU/mL): 0.5 to 1 µg/mL | MIC Staphylococcus aureus-SMITH (GC 4543) (Staphylococcus sp.; 5×10^5 CFU/mL): 0.5 to 1 µg/mL | MIC Staphylococcus haemolyticus (GC 4546) (Staphylococcus sp.; 5×10^5 CFU/mL): 1 to 2 µg/mL | MIC Staphylococcus aureus (GC 3051) (Staphylococcus sp.; strain GC 3051): 0.5 µg/mL (≈ 0.347 µM) | MIC Staphylococcus aureus (GC 3053) (Staphylococcus sp.; strain GC 3053): 0.5 µg/mL (≈ 0.347 µM) | MIC Staphylococcus aureus (GC 4542) (Staphylococcus sp.; strain GC 4542): 0.5 to 1 µg/mL | MIC Staphylococcus aureus-SMITH (GC 4543) (Staphylococcus sp.; strain GC 4543): 0.5 to 1 µg/mL | MIC Staphylococcus aureus (GC 4544) (Staphylococcus sp.; strain GC 4544): 0.5 to 1 µg/mL | MIC Staphylococcus aureus (GC 4545) (Staphylococcus sp.; strain GC 4545): 0.5 to 1 µg/mL | MIC Staphylococcus haemolyticus (GC 4546) (Staphylococcus sp.; strain GC 4546): 1 to 2 µg/mL | MIC Coagulase Negative Staphylococcus (GC 4547) (Staphylococcus sp.; strain GC 4547): 1 to 2 µg/mL | MIC Coagulase Negative Staphylococcus (GC 4548) (Staphylococcus sp.; strain GC 4548): <0.5 to 1 µg/mL | MIC Coagulase Negative Staphylococcus (GC 4549) (Staphylococcus sp.; strain GC 4549): <0.5 to 1 µg/mL | MIC Coagulase Negative Staphylococcus (GC 4551) (Staphylococcus sp.; strain GC 4551): 1 µg/mL (≈ 0.695 µM) | MIC Coagulase Negative Staphylococcus (GC 6257) (Staphylococcus sp.; strain GC 6257): 2 µg/mL (≈ 1.39 µM) | MIC Coagulase Negative Staphylococcus (ID-3941) (Staphylococcus sp.; strain ID-3941): 1 µg/mL (≈ 0.695 µM) | MIC Streptococcus pyogenes (GC 4563) (Streptococcus sp.): >0.12 µg/mL | MIC Streptococcus agalactiae (GC 4564) (Streptococcus sp.): <0.12 µg/mL | MIC Streptococcus pyogenes (ID-3187) (Streptococcus sp.; strain ID-3187): <0.5 µg/mL | MIC Escherichia coli (GC 4559) (Escherichia coli): 64 µg/mL (≈ 44.5 µM) | MIC Escherichi coli (GC 4560) (Escherichia coli): 0.5 to 2 µg/mL

CC(c1ccccc1)C1NC(=O)CNC(=O)C(CO)NC(=O)C(C(O)C2CNC(=N)N2C2OC(CO)C(O)C(O)C2O)NC(=O)C(C(O)C2CNC(=N)N2)NC(=O)C(Cc2ccc(OC3OC(CO)C(OC4OC5COC(c6cccc(Cl)c6)OC5C(O)C4O)C(O)C3O)cc2)NC1=O (stereo not drawn) [Example 138, Cyclo[glycyl-β-methylphenylalanyl-O-[4-O-[4,6-O-(3-chlorobenzylidene)hexopyranosyl]-hexopyranosyl]tyrosyl-3-(2-iminoimidazolidin-4-yl)seryl-3-(3-hexopyranosyl-2-iminoimidazolidin-4-yl)serylseryl]]
MIC Enterococcus faecalis (ATCC 29212) (Enterococcus sp.): 4 µg/mL (≈ 2.82 µM) | MIC Enterococcus faecalis (GC 2242) (Enterococcus sp.): 4 µg/mL (≈ 2.82 µM) | MIC Enterococcus faecium (GC 2243) (Enterococcus sp.): 4 µg/mL (≈ 2.82 µM) | MIC Enterococcus faecalis (GC 2691) (Enterococcus sp.): 8 µg/mL (≈ 5.64 µM) | MIC Enterococcus faecalis (GC 3059) (Enterococcus sp.): 4 µg/mL (≈ 2.82 µM) | MIC Enterococcus faecalis (GC 4552) (Enterococcus sp.): 4 µg/mL (≈ 2.82 µM) | MIC Enterococcus faecalis (GC 4553) (Enterococcus sp.): 8 µg/mL (≈ 5.64 µM) | MIC Enterococcus faecalis (GC 4554) (Enterococcus sp.): 8 µg/mL (≈ 5.64 µM) | MIC Enterococcus faecium (GC 4556) (Enterococcus sp.): 8 µg/mL (≈ 5.64 µM) | MIC Enterococcus faecium (GC 4557) (Enterococcus sp.): 2 µg/mL (≈ 1.41 µM) | MIC Enterococcus avium (GC 4558) (Enterococcus sp.): 4 µg/mL (≈ 2.82 µM) | MIC Enterococcus faecalis (GC 6189) (Enterococcus sp.): 4 µg/mL (≈ 2.82 µM) | MIC Coagulase Negative Staphylococcus (GC 4547) (Staphylococcus sp.; 5×10^5 CFU/mL): 4 µg/mL (≈ 2.82 µM) | MIC Coagulase Negative Staphylococcus (GC 4548) (Staphylococcus sp.; 5×10^5 CFU/mL): 1 µg/mL (≈ 0.705 µM) | MIC Coagulase Negative Staphylococcus (GC 4549) (Staphylococcus sp.; 5×10^5 CFU/mL): 1 µg/mL (≈ 0.705 µM) | MIC Coagulase Negative Staphylococcus (GC 4551) (Staphylococcus sp.; 5×10^5 CFU/mL): 2 µg/mL (≈ 1.41 µM) | MIC Coagulase Negative Staphylococcus (GC 6257) (Staphylococcus sp.; 5×10^5 CFU/mL): 2 µg/mL (≈ 1.41 µM) | MIC Staphylococcus aureus (ATCC 29213) (Staphylococcus sp.; 5×10^5 CFU/mL): 2 µg/mL (≈ 1.41 µM) | MIC Staphylococcus aureus (GC 1131) (Staphylococcus sp.; 5×10^5 CFU/mL): 2 µg/mL (≈ 1.41 µM) | MIC Staphylococcus aureus (GC 3051) (Staphylococcus sp.; 5×10^5 CFU/mL): 2 µg/mL (≈ 1.41 µM) | MIC Staphylococcus aureus (GC 3053) (Staphylococcus sp.; 5×10^5 CFU/mL): 2 µg/mL (≈ 1.41 µM) | MIC Staphylococcus aureus (GC 4541) (Staphylococcus sp.; 5×10^5 CFU/mL): 2 µg/mL (≈ 1.41 µM) | MIC Staphylococcus aureus (GC 4542) (Staphylococcus sp.; 5×10^5 CFU/mL): 2 µg/mL (≈ 1.41 µM) | MIC Staphylococcus aureus (GC 4544) (Staphylococcus sp.; 5×10^5 CFU/mL): 2 µg/mL (≈ 1.41 µM) | MIC Staphylococcus aureus (GC 4545) (Staphylococcus sp.; 5×10^5 CFU/mL): 2 µg/mL (≈ 1.41 µM) | MIC Staphylococcus aureus-SMITH (GC 4543) (Staphylococcus sp.; 5×10^5 CFU/mL): 1 µg/mL (≈ 0.705 µM) | MIC Staphylococcus haemolyticus (GC 4546) (Staphylococcus sp.; 5×10^5 CFU/mL): 2 µg/mL (≈ 1.41 µM) | MIC Staphylococcus aureus (ATCC 29213) (Staphylococcus sp.; strain ATCC 29213): 2 µg/mL (≈ 1.41 µM) | MIC Staphylococcus aureus (GC 1131) (Staphylococcus sp.; strain GC 1131): 2 µg/mL (≈ 1.41 µM) | MIC Staphylococcus aureus (GC 3051) (Staphylococcus sp.; strain GC 3051): 2 µg/mL (≈ 1.41 µM) | MIC Staphylococcus aureus (GC 3053) (Staphylococcus sp.; strain GC 3053): 2 µg/mL (≈ 1.41 µM) | MIC Staphylococcus aureus (GC 4541) (Staphylococcus sp.; strain GC 4541): 2 µg/mL (≈ 1.41 µM) | MIC Staphylococcus aureus (GC 4542) (Staphylococcus sp.; strain GC 4542): 2 µg/mL (≈ 1.41 µM) | MIC Staphylococcus aureus-SMITH (GC 4543) (Staphylococcus sp.; strain GC 4543): 1 µg/mL (≈ 0.705 µM) | MIC Staphylococcus aureus (GC 4544) (Staphylococcus sp.; strain GC 4544): 2 µg/mL (≈ 1.41 µM) | MIC Staphylococcus aureus (GC 4545) (Staphylococcus sp.; strain GC 4545): 2 µg/mL (≈ 1.41 µM) | MIC Staphylococcus haemolyticus (GC 4546) (Staphylococcus sp.; strain GC 4546): 2 µg/mL (≈ 1.41 µM) | MIC Coagulase Negative Staphylococcus (GC 4547) (Staphylococcus sp.; strain GC 4547): 4 µg/mL (≈ 2.82 µM) | MIC Coagulase Negative Staphylococcus (GC 4548) (Staphylococcus sp.; strain GC 4548): 1 µg/mL (≈ 0.705 µM) | MIC Coagulase Negative Staphylococcus (GC 4549) (Staphylococcus sp.; strain GC 4549): 1 µg/mL (≈ 0.705 µM) | MIC Coagulase Negative Staphylococcus (GC 4551) (Staphylococcus sp.; strain GC 4551): 2 µg/mL (≈ 1.41 µM) | MIC Coagulase Negative Staphylococcus (GC 6257) (Staphylococcus sp.; strain GC 6257): 2 µg/mL (≈ 1.41 µM) | MIC Streptococcus pneumoniae (ATCC 6301) (Streptococcus sp.; strain ATCC 6301): <0.06 µg/mL | MIC Streptococcus pneumoniae (GC 1894) (Streptococcus sp.; strain GC 1894): <0.06 µg/mL | MIC Streptococcus pyogenes (GC 4563) (Streptococcus sp.): 0.25 µg/mL (≈ 0.176 µM) | MIC Streptococcus agalactiae (GC 4564) (Streptococcus sp.): 0.12 µg/mL (≈ 0.0846 µM) | MIC Streptococcus pneumoniae (GC 4565) (Streptococcus sp.; strain GC 4565): <0.06 µg/mL | MIC Escherichia coli (ATCC 25922) (Escherichia coli; strain ATCC 25922): 64 µg/mL (≈ 45.1 µM) | MIC Escherichia coli (GC 4559) (Escherichia coli): 64 µg/mL (≈ 45.1 µM) | MIC Escherichi coli (GC 4560) (Escherichia coli): 0.5 µg/mL (≈ 0.353 µM)
